Consider 2 molecules from patent US20090030066A1, “SMALL MOLECULES FOR THE PROTECTION OF PANCREATIC CELLS” (priority 2007, published 2009).

The subject of assay [1] is STZ-treated mice. The assay can be described thus: Blood glucose and body weight in STZ-treated mice, first experiment (not fasted). In kind it is in vivo. As to conditions: for Body weight: STZ 210 mg/kg + compound 4.5 mg/kg i.p., unit not given, in g; for protection of islet β-cells: STZ-induced type 1 diabetes model; for effect on STZ-induced rise of blood glucose: STZ-treated animals, 4.5 mg/kg i.p.; for effect on STZ-induced body weight loss: STZ-treated mice, to day 10. Here is the method: Male C57BL/6 mice (12 weeks old) were housed in a specific pathogen-free facility with a 12-h light/dark cycle and given free access to food and water. Animals weighing between 28-31 g were selected for the experiments. In each group, at the start of experiment the body weight among individual animals differed by less than 1-g.
One group of mice received no treatment over the entire experiment. A second group received only 4.5 mg per kg of CCompound1 on days −2, −1, 0, +1, +2, +3, +4, +5, +6 and +7. A third/fourth/fifth/sixth group of animals were treated i.p. with 210 mg/kg of STZ on day 0. The fourth, fifth, and sixth group of animals also received 4.5 mg per kg each of CCompound1 (CC1; 4th group) or CCompound3 (CC3; 5th group), or CCompound19 (CC19; 6th group) on days −2, −1, 0, +1, +2, +3, +4, +5, +6 and +7 (with STZ treatment given on day 0). Each group consisted of 7 animals. Body weight was measured regularly.
CC compounds were dissolved in physiological saline while STZ was dissolved in 100 mM sodium citrate (pH 4.5). All compounds were injected intraperitoneally in 0.5 ml volume. Control animals were injected physiological saline (0.5 ml) on the same days when other groups were treated with CC compounds.
Blood samples were taken from the eye (canthus) of the animals on days −1, 0, +1, +2, +3, +7 and +10, and glucose concentrations in whole blood samples were immediately measured with the commercially available fast Glucose C test. The animals were not fasted prior to taking the blood samples. The results are expressed as the mean values from 7 animals ±std. dev. (S.D.).

Assay [2] relates to STZ-treated mice. The assay can be described thus: STZ-treated mice, second experiment: body weight to day 80 and survival. The class given is in vivo. As to conditions: STZ + compound. The source says:
In a second similar experiment performed with 6 mice in each group, the changes in body weight were followed for up to 80 days (when the last STZ-treated mouse died), and survival was followed for up to 100 days.
For the body weight (on the 80th day) and survival the following values were obtained: Untreated (6 survivors), 37.7 g; STZ-treated (one last survivor died on day 80, others survived for 22, 25, 27, 60, 75 days), 26.0 g; CCompound1-treated (6 survivors), 36.0 g; STZ+CCompound1 treated (6 survivors), 33.4 g; STZ+CCompound3-treated (5 survivors; one mouse died on day 78), 32.5 g. At the start of the experiment (day 0), the average body weight ranged from 28.6 to 29.8 g. Accordingly, by day 80, STZ-treated animals that were also treated with CCompound1 and CCompound3 gained about 50% of the weight gained by the untreated animals.

The subject of assay [3] is AR42J rat pancreatic tumor cell line. The assay can be described thus: MTT proliferation of AR42J pancreatic tumor cells. The class given is cell-based. As to conditions: 96 h. The source says: In the Examples below, an MTT assay was used to determine the relative number of viable cells after treatments. This calorimetric assay is based on the ability of living cells, but not dead cells, to reduce 3-(4,5-dimethyl thiazol-2-yl)-2,5-diphenyltetrazolium bromide. [Carmichael, J, De Graff, W. G., Gazdar, A. F., Minna, J. D. and Mitchell, J. B. (1987) Evaluation of tetrazolium-based semiautomated calorimetric assay: Assessment of chemosensitivity testing. Cancer Res. 47, 936-942], which is hereby incorporated by reference. For this assay, cells were plated in 96-well plates, and the MTT assay was performed as described in the above article both in untreated and treated cell cultures. The MTT assay also was performed at the time when the treatment was started to allow for assessment of the proliferation and survival rates in the control and treated cell cultures. In the MTT assay, higher values mean proportionally higher numbers of viable cells.
The AR42J rat pancreatic tumor cell line, purchased from ATTC (catalog number: CRL-1492), was propagated in modified Ham's medium containing 20% fetal bovine serum. These cells, derived from a transplantable tumor of the exocrine pancreas, contain significant amounts of amylase and other exocrine enzymes and they produce tumors in athymic mice.
For the experiment, cells were split in 96-well plates at 15,000 cells per well. After 24 hours, the medium was changed for fresh medium (0 hour) and various concentrations of CCompound1 and CCompound3 were added and incubations continued for 96 hours. The MTT assay was used to determine the relative number of viable cells. From the data shown in TABLE 13, in the 2-25 μM concentration range CC compounds had only inhibitory effects on the proliferation of pancreatic cancer cells.

[4] abbreviates: STZ 210 mg/kg i.p. day 0 + compound 4.5 mg/kg i.p. days −2 to +7, day 0.
[5] abbreviates: STZ 210 mg/kg i.p. day 0 + compound 4.5 mg/kg i.p. days −2 to +7, day +1.
Setting [6] is: STZ 210 mg/kg i.p. day 0 + compound 4.5 mg/kg i.p. days −2 to +7, day +2.
Where [7] appears, read: STZ 210 mg/kg i.p. day 0 + compound 4.5 mg/kg i.p. days −2 to +7, day +3.
Where [8] appears, read: STZ 210 mg/kg i.p. day 0 + compound 4.5 mg/kg i.p. days −2 to +7, day +7.
The mark [9] stands for this setting: STZ 210 mg/kg i.p. day 0 + compound 4.5 mg/kg i.p. days −2 to +7, day +10.
Setting [10] is: STZ 210 mg/kg i.p. day 0 + compound 4.5 mg/kg i.p. days −2 to +7, day −1.

Regarding `CC[N+](C)(CC)CCOCc1ccc2sc3ccccc3c(=O)c2c1` [CCcompound3], the Body weight stood at 28.0 ± 0.9 in assay [1] (day 0); 28.2 ± 0.8 in assay [1] (day +1); 25.3 ± 0.5 in assay [1] (day +2); 25.3 ± 0.6 in assay [1] (day +3); 25.2 ± 0.9 in assay [1] (day +7); 24.7 ± 1.3 in assay [1] (day +10). For the same molecule, the Blood glucose in assay [1] (setting [4]) amounted to 4.7 ± 0.7 mM; in assay [1] (setting [5]), 6.5 ± 0.7 mM; in assay [1] (setting [6]) it was 10.7 ± 1.1 mM; in assay [1] (setting [7]), 13.0 ± 1.1 mM; in assay [1] (setting [8]), 14.2 ± 1.3 mM; in assay [1] (setting [9]), 13.6 ± 1.6 mM. The Blood glucose in assay [1] (setting [10]) was determined as 4.6 ± 0.5 mM. Further, in assay [1], the “protection of islet β-cells” value is given as “clearly protected β-cell function”. Also, the “effect on STZ-induced rise of blood glucose” value in assay [1] is given as “prevent drastic increase in blood glucose level”. Besides, the “effect on STZ-induced body weight loss” value in assay [1] was “reduced the effect of STZ on body weight”. Further, the “weight gained by day 80 relative to the weight gained by the untreated animals” value in assay [2] was “about 50%”. Further, the “body weight on the 80th day” value in assay [2] (6 mice per group) is recorded as 32.5 g. The survivors in assay [2] (80th day, 6 mice per group) was determined as 5. Further, the A540 (MTT, relative number of viable cells) in assay [3] (2 μM) was 1.17; in assay [3] (5 μM), 0.868 ± 0.093; in assay [3] (10 μM), 0.745 ± 0.052; in assay [3] (25 μM), 0.675 ± 0.064.

Consider `C[N+](C)(C)CCC=C1c2ccccc2Sc2ccccc21.[I-]` [CCcompound19, N,N,N-trimethyl-3-(9H-thioxanthen-9-ylidene)-propane-1-aminium iodide], for which the Body weight in assay [1] (day 0) was 28.1 ± 0.5; in assay [1] (day +1), 28.5 ± 1.2; in assay [1] (day +2), 26.4 ± 0.8; in assay [1] (day +3), 26.8 ± 1.0; in assay [1] (day +7), 26.2 ± 0.9; in assay [1] (day +10) it was 26.4 ± 1.7. Further, the Blood glucose in assay [1] (setting [4]) came to 4.8 ± 0.3 mM; in assay [1] (setting [5]) it was 5.9 ± 0.6 mM; in assay [1] (setting [6]), 8.7 ± 0.8 mM; in assay [1] (setting [7]), 10.5 ± 0.9 mM; in assay [1] (setting [8]) it was 12.5 ± 1.1 mM; in assay [1] (setting [9]) it was 11.9 ± 1.1 mM. The Blood glucose in assay [1] (setting [10]) is 4.3 ± 0.3 mM. The “protection of islet β-cells” value in assay [1] is reported as “protected islet β-cells”. Further, the “effect on STZ-induced rise of blood glucose” value in assay [1] is recorded as “prevent drastic increase in blood glucose level”. Moreover, the “effect on STZ-induced body weight loss” value in assay [1] is given as “reduced the effect of STZ on body weight”.
